From paper PMC11292009, “Mapping protein binding sites by photoreactive fragment pharmacophores” (Communications Chemistry, 2024)
Values joined by “and” are separate entries in the source; they are usually repeats but may differ in a detail not shown here. Equal values may be shown once.

Columns and labels:
lysozyme (Lyo) = assay: Intact protein MS photoaffinity labeling screen, lysozyme; assay type: binding; conditions: intact protein MS after 10 min irradiation
Outline: (§1)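 Labeling % derives from mass additions observed by intact protein MS on each well, measured without transfer from the plate; fragments, one per well, had been pre-incubated 15 min with protein.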

MV4-11 cells = assay: CellTiter-Blue cell viability assay, MV4-11; assay type: cell-based; conditions: Homo sapiens, MV4-11, 72 h
Protocol: MV4-11 and MOLM-13 cell lines were purchased from DSMZ (Braunschweig, Germany), and grown at 37 °C and 5% CO2 in RPMI 1640 medium (Gibco^TM, Thermo Fisher Scientific). Media were supplemented with 10% fetal calf serum (FCS), 10 U/mL penicillin, 10 µg/mL streptomycin and 2 mM L-glutamine (all Gibco^TM, Thermo Fisher Scientific).
To determine the IC50 of the selected compounds on the cell lines, CellTiter-Blue® cell viability assay (Promega) was performed. For this, cells were seeded in 96-well flat bottom plates at a cell density of 10,000 cells/well. Cells were treated in triplicates with the compound of interest at various concentrations or with 10 μM Bortezomib (S1013; Selleck Chemicals, Houston, TX, USA) as a positive control. Cell viability of treated cell lines was measured using CellTiter-Blue® after 72 h incubation. Plates were measured using a GloMax® plate reader (Promega) and IC50 values were determined by non-linear regression using the GraphPad Prism 9.1.1 (GraphPad Software, Inc.) and the data are reported as mean values ± SEM.

[1] = tested on: carbonic anhydrase II (CA); assay: Intact protein MS photoaffinity labeling screen, carbonic anhydrase; assay type: binding; conditions: intact protein MS after 10 min irradiation
Outline: as §1

[2] = tested on: CA, Lyo, Myo, BRD4-BD1, KRas G12D, STAT5B-NTD; assay: Intact MS labeling compared over all protein targets; assay type: binding; conditions: for Labeling of the other protein targets (vs. preferred target): each of the other targets
Outline: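 Each fragment incubated 15 min with protein, then UV-irradiated 10 min at 302 or 365 nm to crosslink. Labeling % read by intact-protein LC-TOF MS from mass additions. For BRD4-BD1 and KRas G12D, protein stock was 1 µM in PBS, fragment stock 20 mM, incubation was on ice and irradiation at 302 nm.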

KRas^G12D = tested on: T1, KRas^G12D; assay: Intact MS photoaffinity labeling screen, KRas G12D (302 nm, LCMS-TOF); assay type: binding; conditions: for MS labeling percentage, KRas: KRas G12D, 302 nm 10 min
T1 construct: purchased GSK/GenScript
Outline: (§2)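 Labeling detected as mass additions in deconvoluted intact-protein LCMS-TOF spectra. Protein at 1 μM in PBS was first mixed with one fragment per well on ice for 15 min, followed by 10 min UV exposure at 302 nm.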

STAT5B-NTD [3] = tested on: T2, STAT5B-NTD; assay: Intact MS labeling screen, STAT5B-NTD conjugated with photocatalyst Ir-G2-PEG3-COOH (450 nm); assay type: binding; conditions: 450 nm 10 min;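 note: 0.14 µL of 100 mM DMSO fragment stock added to the conjugate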
T2 construct: His-SUMO (N, cleaved yes); made in house; host or cells: E. coli BL21 RILP
Outline: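 Ir-G2-PEG3-COOH photocatalyst (10 eq) activated 30 min with EDC/NHS/BOP, then conjugated to STAT5B-NTD (7 µM) overnight at RT or 1 h at 37 °C in dark. PhP added, 1 h dark, then 450 nm irradiation 10 min at 4 °C; labeling read by intact LC-MS, positive ion mode, m/z 100–2000.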

BRD4-BD1 = tested on: T3, BRD4-BD1; assay: Intact MS photoaffinity labeling screen, BRD4-BD1 (302 nm, LCMS-TOF); assay type: binding; conditions: for MS labeling percentage, BRD4: BRD4-BD1, 302 nm 10 min
T3 construct: screened the PhP library against the first bromodomain of BRD4 (BRD4-BD1); purchased GSK/GenScript
Outline: as §2

STAT5B-NTD [4] = tested on: T2, STAT5B-NTD; assay: Intact MS photoaffinity labeling screen, STAT5B-NTD (365 nm, UHPLC-MS); assay type: binding;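 for MS labeling percentage, STAT5B: 0.17 µL of 100 mM DMSO fragment stock added to the protein sample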
Outline: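 UV irradiation at 365 nm for 10 min at 4 °C. Labeling read by intact-protein UHPLC-MS, positive ion mode, m/z 100–2000.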

myoglobin (Myo) = assay: Intact protein MS photoaffinity labeling screen, myoglobin; assay type: binding; conditions: intact protein MS after 10 min irradiation
Outline: as §1

[5] = sheet PhP, experimental hit status flag given as 0 or 1
[6] = PhP library sheet "PhP", binary flag printed as 0 or 1, key not given

IC50 (MV4-11 cells) [µM]	MS labeling percentage, CA [1] [%]	SMILES	MS labeling percentage, Lyo (lysozyme (Lyo)) [%]	Labeling of the other protein targets (vs. preferred target) [2]	MS labeling percentage, KRas (KRas^G12D) [%]	KRAS-G12D (experimental hit status) (KRas^G12D; [5])	MS labeling percentage, STAT5B+photocat (STAT5B-NTD [3]) [%]	BRD4-BD1 (experimental hit status) (BRD4-BD1; [5])	STAT5B-NTD (experimental hit status) (STAT5B-NTD [4]; [5])	MS labeling percentage, Myo (myoglobin (Myo)) [%]	Labeling efficiency over all protein targets (mean ± spread) ([2]; over all protein targets) [%]	MS labeling percentage, BRD4 (BRD4-BD1) [%]	MS labeling percentage, STAT5B (STAT5B-NTD [4]; STAT5B-NTD, 365 nm 10 min, no photocatalyst) [%]	KRAS-G12D (experimental hit status) (KRas^G12D; [6])	BRD4-BD1 (experimental hit status) (BRD4-BD1; [6])	STAT5B-NTD (experimental hit status) (STAT5B-NTD [4]; [6])
76.2	0.3	Cc1[nH]c2ccccc2c1SCCNC(=O)CCC1(C)N=N1 [PhP065, c1cccc(c12)c(c(C)[nH]2)SCCNC(=O)CCC3(C)N=N3]	2.6	> 3% and < 3%	0.2	0	11.2	0	1	0.1	–	–	–	–	–	–
56.6	0	CC1(CCC(=O)NCCc2csc(-c3ccccc3)n2)N=N1 [PhP097, N1=NC1(C)CCC(=O)NCCc2csc(n2)-c3ccccc3]	1.8	> 3% and < 3%	0.2	–	4.2	–	–	0.1	–	0.5	–	0	0	1

SMILES	IC50 (MV4-11 cells) [µM]	MS labeling percentage, CA [1] [%]	MS labeling percentage, Lyo (lysozyme (Lyo)) [%]	Labeling of the other protein targets (vs. preferred target) [2]	MS labeling percentage, KRas (KRas^G12D) [%]	KRAS-G12D (experimental hit status) (KRas^G12D; [5])	MS labeling percentage, STAT5B+photocat (STAT5B-NTD [3]) [%]	BRD4-BD1 (experimental hit status) (BRD4-BD1; [5])	STAT5B-NTD (experimental hit status) (STAT5B-NTD [4]; [5])	MS labeling percentage, Myo (myoglobin (Myo)) [%]	Labeling efficiency over all protein targets (mean ± spread) ([2]; over all protein targets) [%]	MS labeling percentage, BRD4 (BRD4-BD1) [%]	MS labeling percentage, STAT5B (STAT5B-NTD [4]; STAT5B-NTD, 365 nm 10 min, no photocatalyst) [%]	KRAS-G12D (experimental hit status) (KRas^G12D; [6])	BRD4-BD1 (experimental hit status) (BRD4-BD1; [6])	STAT5B-NTD (experimental hit status) (STAT5B-NTD [4]; [6])
Cc1ncc(CO)c(CNC(=O)CCC2(C)N=N2)c1O [PhP072, Cc1ncc(CO)c(c1O)CNC(=O)CCC2(C)N=N2]	–	7.7	1	–	12.2	1	3.3	1	0	3.3	4.4 ± 4.3	2.2	0	–	–	–
